This is an account of results in ChEMBL document CHEMBL5338809, “Fragment-Based Discovery of Azocyclic Alkyl Naphthalenesulfonamides as Keap1-Nrf2 Inhibitors for Acute Lung Injury Treatment” (J Med Chem, 2023).

SMILES strings stand for the structures.

Data set [1] can be described thus: Cytotoxicity against mouse peritoneal macrophages assessed as reduction in cell viability incubated for 24 hrs by Cell titer-blue assay. Type of data set: toxicity, cell-based, Peritoneal macrophage.
Data set [2] deals with Keap1/Nrf2 (Homo sapiens) (UniProt Q16236+Q14145). The data set can be described thus: Binding affinity to human Keap1-Nrf2 protein-protein interaction assessed as dissociation constant (Kd2) incubated for 60 mins by fluorescent polarization assay.
Data set [3] has as its system Peritoneal macrophage. The data set can be described thus: Antiinflammatory activity in mouse peritoneal macrophages assessed as fold reduction in LPS-induced TNFalpha level at 10 uM incubated for 4 hrs by ELISA method. Type of data set: functional.

Keap1/Nrf2 (Homo sapiens), sequence (Q14145 whole entry, looked up): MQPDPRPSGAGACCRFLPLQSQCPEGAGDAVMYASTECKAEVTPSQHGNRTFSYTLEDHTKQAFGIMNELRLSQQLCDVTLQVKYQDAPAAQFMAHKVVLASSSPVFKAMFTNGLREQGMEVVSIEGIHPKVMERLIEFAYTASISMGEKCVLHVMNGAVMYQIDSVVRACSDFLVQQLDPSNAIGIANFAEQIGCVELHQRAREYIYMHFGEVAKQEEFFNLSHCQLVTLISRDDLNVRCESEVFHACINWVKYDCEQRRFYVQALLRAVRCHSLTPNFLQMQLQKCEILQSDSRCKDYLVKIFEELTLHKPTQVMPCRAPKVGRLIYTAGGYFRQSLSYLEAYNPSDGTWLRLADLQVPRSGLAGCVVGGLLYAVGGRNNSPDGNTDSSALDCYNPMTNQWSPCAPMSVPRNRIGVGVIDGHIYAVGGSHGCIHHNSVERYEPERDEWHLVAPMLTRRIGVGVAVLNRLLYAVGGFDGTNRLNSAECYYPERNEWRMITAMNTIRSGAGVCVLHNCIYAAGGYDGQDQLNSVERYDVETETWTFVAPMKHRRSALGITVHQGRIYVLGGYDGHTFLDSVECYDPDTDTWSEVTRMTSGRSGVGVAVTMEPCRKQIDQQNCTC
Keap1/Nrf2 (Homo sapiens), sequence (Q16236 whole entry, looked up): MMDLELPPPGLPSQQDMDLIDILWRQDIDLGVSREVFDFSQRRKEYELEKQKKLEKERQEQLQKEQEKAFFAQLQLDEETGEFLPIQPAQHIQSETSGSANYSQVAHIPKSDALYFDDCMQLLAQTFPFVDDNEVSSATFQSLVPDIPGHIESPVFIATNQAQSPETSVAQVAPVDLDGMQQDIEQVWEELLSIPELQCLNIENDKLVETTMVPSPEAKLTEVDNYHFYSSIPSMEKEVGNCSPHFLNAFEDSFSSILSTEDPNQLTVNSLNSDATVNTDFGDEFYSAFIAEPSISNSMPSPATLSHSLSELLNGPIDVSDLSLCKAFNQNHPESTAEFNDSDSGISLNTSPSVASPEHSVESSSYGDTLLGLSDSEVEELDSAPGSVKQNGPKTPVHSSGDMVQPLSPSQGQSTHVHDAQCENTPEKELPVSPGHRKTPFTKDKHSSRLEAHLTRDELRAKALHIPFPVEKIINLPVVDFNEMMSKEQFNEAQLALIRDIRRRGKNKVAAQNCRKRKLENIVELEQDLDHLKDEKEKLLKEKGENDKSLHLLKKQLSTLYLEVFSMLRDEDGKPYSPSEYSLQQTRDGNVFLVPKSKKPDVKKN

Regarding `CC[C@H](N)C(=O)Nc1ccc(S(=O)(=O)N(CC(N)=O)c2ccc(N(CC(N)=O)S(=O)(=O)c3ccc(OC)cc3)c3ccccc23)cc1`, the CC50 at 24 h in data set [1] was more than 100 µM. Besides, the K in data set [2] came out at 530 nM. In addition, the “fold change (FC)” value in data set [3] is reported as “<=0.5”.

Take `COc1ccc(S(=O)(=O)N(CC(N)=O)c2ccc(N(CC(N)=O)S(=O)(=O)c3ccc(NC(=O)C4CCCNC4)cc3)c3ccccc23)cc1` (stereo not given): the CC50 at 24 h in data set [1] was more than 100 µM. Further, the K in data set [2] was determined as 430 nM. Moreover, the “fold change (FC)” value in data set [3] was “<=0.5”.

On to `COc1ccc(S(=O)(=O)N(CC(N)=O)c2ccc(N(CC(N)=O)S(=O)(=O)c3ccc(NC(=O)[C@@H](N)C(C)C)cc3)c3ccccc23)cc1`, for which the half-maximal cytotoxic concentration (CC50) at 24 h in data set [1] was more than 100 µM. In addition, in data set [2], the K worked out at 400 nM. The “fold change (FC)” value in data set [3] is given as “<=0.5”.

On to `COc1ccc(S(=O)(=O)N(CC(N)=O)c2ccc(N(CC(N)=O)S(=O)(=O)c3ccc(NC(=O)[C@@H](N)CSC)cc3)c3ccccc23)cc1`, for which the cytotoxic concentration (CC50) at 24 h in data set [1] is more than 100 µM. Further, the K in data set [2] is 440 nM. In addition, the “fold change (FC)” value in data set [3] is recorded as “<=0.5”.

For the molecule `COc1ccc(S(=O)(=O)N(CC(N)=O)c2ccc(N(CC(N)=O)S(=O)(=O)c3ccc(NC(=O)CCCN)cc3)c3ccccc23)cc1`, the CC50 at 24 h in data set [1] was more than 100 µM. For the same molecule, the K in data set [2] worked out at 630 nM. Also, the “fold change (FC)” value in data set [3] is recorded as “<=0.5”.

Regarding `COc1ccc(S(=O)(=O)N(CC(N)=O)c2ccc(N(CC(N)=O)S(=O)(=O)c3ccc(NC(=O)CCN)cc3)c3ccccc23)cc1`, in data set [1], the CC50 at 24 h is more than 100 µM. For the same molecule, the K in data set [2] came out at 440 nM. The “fold change (FC)” value in data set [3] is reported as “<=0.5”.

As for `COCC(=O)Nc1ccc(S(=O)(=O)N(CC(N)=O)c2ccc(N(CC(N)=O)S(=O)(=O)c3ccc(OC)cc3)c3ccccc23)cc1`, the CC50 at 24 h in data set [1] is more than 100 µM. For the same molecule, the K in data set [2] stood at 550 nM. The “fold change (FC)” value in data set [3] is “<=0.5”.

For `COC[C@@H](N)C(=O)Nc1ccc(S(=O)(=O)N(CC(N)=O)c2ccc(N(CC(N)=O)S(=O)(=O)c3ccc(OC)cc3)c3ccccc23)cc1`, in data set [1], the cytotoxic concentration (CC50) at 24 h is more than 100 µM. The K in data set [2] is 280 nM. Also, the “fold change (FC)” value in data set [3] was “<=0.5”.

Turning to `COc1ccc(S(=O)(=O)N(CC(N)=O)c2ccc(N(CC(N)=O)S(=O)(=O)c3ccc(NC(=O)[C@H](N)Cc4ccccc4)cc3)c3ccccc23)cc1`, the CC50 at 24 h in data set [1] was more than 100 µM. Further, in data set [2], the K came out at 1170 nM. Besides, in data set [3], the “fold change (FC)” value was “<=0.5”.

On to `COc1ccc(S(=O)(=O)N(CC(N)=O)c2ccc(N(CC(N)=O)S(=O)(=O)c3ccc(NC(=O)CN)cc3)c3ccccc23)cc1`, for which the CC50 at 24 h in data set [1] is more than 100 µM. The K in data set [2] turned out to be 250 nM. Also, the “fold change (FC)” value in data set [3] was “<=0.5”.

With `COc1ccc(S(=O)(=O)N(CC(N)=O)c2ccc(N(CC(N)=O)S(=O)(=O)c3ccc(NC(=O)[C@@H]4CCN4)cc3)c3ccccc23)cc1`, the CC50 at 24 h in data set [1] was more than 100 µM. Also, the K in data set [2] amounted to 650 nM. In addition, the “fold change (FC)” value in data set [3] was “<=0.5”.

In the case of `COc1ccc(S(=O)(=O)N(CC(N)=O)c2ccc(N(CC(N)=O)S(=O)(=O)c3ccc(NC(=O)[C@@H](N)Cc4ccccc4)cc3)c3ccccc23)cc1`, the CC50 at 24 h in data set [1] was more than 100 µM. The K in data set [2] was 820 nM. In data set [3], the “fold change (FC)” value was “<=0.5”.

As for `COc1ccc(S(=O)(=O)N(CC(N)=O)c2ccc(N(CC(N)=O)S(=O)(=O)c3ccc(NC(=O)CCCCN)cc3)c3ccccc23)cc1`, in data set [1], the CC50 at 24 h was more than 100 µM. Moreover, the K in data set [2] is 270 nM. Further, in data set [3], the “fold change (FC)” value is recorded as “<=0.5”.

Turning to `COc1ccc(S(=O)(=O)N(CC(N)=O)c2ccc(N(CC(N)=O)S(=O)(=O)c3ccc(NC(=O)[C@H]4CCCNC4)cc3)c3ccccc23)cc1`, in data set [1], the CC50 at 24 h was more than 100 µM. Further, in data set [2], the K stood at 400 nM. In data set [3], the “fold change (FC)” value was “<=0.5”.

For the molecule `CCC[C@@H](N)C(=O)Nc1ccc(S(=O)(=O)N(CC(N)=O)c2ccc(N(CC(N)=O)S(=O)(=O)c3ccc(OC)cc3)c3ccccc23)cc1`, in data set [1], the half-maximal cytotoxic concentration (CC50) at 24 h was more than 100 µM. In addition, the K in data set [2] worked out at 590 nM. In addition, the “fold change (FC)” value in data set [3] is reported as “<=0.5”.
